# Measurements taken from patent US7626027B2, “Substituted 1H-pyrrolo[2,3-c]pyridine-2-carboxamides and related analogs as inhibitors of casein kinase Iε” (Aventis Pharmaceuticals Inc, priority 2003, dated 2009).
# Biological target: T1, casein kinase 1ε (Homo sapiens, UniProt P49674)
# T1 construct: made in house
# Assay: Casein Kinase Epsilon 33P-ATP Filter Plate Assay
# Type: biochemical
# Details: not given
# From the text: Casein Kinase Epsilon ^33P-ATP Filter Plate Assay for Screening CK1 Inhibitors Purpose: This assay measures the effect of compounds to inhibit the phosphorylation of the substrate casein by the enzyme casein kinase 1ε using an in vitro ^33P-ATP filtration assay.
# Equipment: • Beckman Biomek 2000 Liquid Handling Robot • Beckman Multimek 96 Automated 96 Channel Pipettor • Millipore Vacuum Manifold Basic Kit # MAVM0960R • Titertek Multidrop Liquid Dispenser • Packard TopCount NXT Liquid Scintillation Counter
# Enzyme: • Casein Kinase 1ε final concentration 0.58 mg/ml obtained from fermentation and purification processes performed by Aventis Pharmaceuticals Inc., France. The above are stored as 100 μL aliquots at minus 80° C.
# Compounds: • Compounds for testing are supplied as frozen 10 mM compound stock dissolved in 100% DMSO. Assay Conditions:
# Final total assay volume per well is equal to 50 μL made up as follows: • 5 μL of diluted compound stock ([…], 0.1, 0.01 or 0.001 μM), • 5 μL of dephosphorylated casein final concentration 0.2 μg/μL, • 20 μL of CK1ε final concentration 3 ng/μL, and • 20 μL of γ-^33P-ATP final concentration 0.02 μCi/μL mixed with cold ATP (10 μM final). Methodology: • 1. 500 mL of fresh assay buffer is made: 50 mM Tris pH 7.5, 10 mM MgCl2, 2 mM DTT and 1 mM EGTA • 2. Compounds to be evaluated are obtained as 10 μL of 10 mM stock dissolved in 100% DMSO. Using a Biomek 2000 liquid handling robot, serial dilutions are made to yield 10, 1, 0.1, 0.01 and 0.001 μM final compound dilutions added as 5 μL additions to Falcon U bottom plates. […] A routine screening assay will consist of 32 compounds, which equals 4 assay plates. • 3. Assay plate maps are set up according to the following pattern
# • 4. […] Finally 20 μL […] (0.02 μCi/μL)/10 μM cold ATP are added (equals approximately 2×10^6 CPM per well). • 6. The Falcon U-Bottom assay plate containing the above 50 μL reaction volume is vortexed and then incubated at room temperature for 2 hours. • 7. At the end of 2 hours, the reaction is stopped by the addition of 65 μL of ice cold 2 mM cold ATP (made up in assay buffer) to the assay plates using a Beckman Multimek • 8. At the same time 25 μL 100% ice cold TCA made up in distilled H2O is added to a matching number of Millipore MAPH filter plates. • 9. Using a handheld 8-channel pipettor, 100 μL of the reaction mixture is transferred from the Falcon U-Bottom Plate to the Millipore MAPH filter plates presoaked with TCA. • 10. The Millipore MAPH filter plates are mixed gently and allowed to sit at room temperature for at least 30 minutes to precipitate the proteins. • 11. After 30 minutes the filter plates are placed on a Millipore vacuum manifold and filtered at no more than 8 mm Hg as the MAPH filters tend to “air lock” at higher vacuum settings. • 12. The filter plates are sequentially washed and filtered with 2×150 μL 20% TCA, 2×150 μL 10% TCA and 2×150 μL 5% TCA (total of 6 washes per plate/900 μL per well). • 13. Plates are allowed to dry overnight at room temperature. The next day 40 μL Packard Microscint-20 Scintillation Fluid is added per well using a Titertek Multidrop dispenser; the plates are sealed and counted for 2 minutes/well in a Packard Topcount NXT Scintillation Counter (CPM values/well are captured). Calculation: • 1. Counts Per Minute (CPM) data is captured and imported into a proprietary data calculation and archiving database (Activity Base by IDBS version 5.0). • 2. Column 1 for each plate reflects total phosphorylation activity of the enzyme in the absence of any inhibiting compound and thus represents 100%. Column 12 reflects any nonspecific phosphorylation/retained radioactivity activity in the absence of inhibiting compound and enzyme.
# T1 sequence (P49674 whole entry): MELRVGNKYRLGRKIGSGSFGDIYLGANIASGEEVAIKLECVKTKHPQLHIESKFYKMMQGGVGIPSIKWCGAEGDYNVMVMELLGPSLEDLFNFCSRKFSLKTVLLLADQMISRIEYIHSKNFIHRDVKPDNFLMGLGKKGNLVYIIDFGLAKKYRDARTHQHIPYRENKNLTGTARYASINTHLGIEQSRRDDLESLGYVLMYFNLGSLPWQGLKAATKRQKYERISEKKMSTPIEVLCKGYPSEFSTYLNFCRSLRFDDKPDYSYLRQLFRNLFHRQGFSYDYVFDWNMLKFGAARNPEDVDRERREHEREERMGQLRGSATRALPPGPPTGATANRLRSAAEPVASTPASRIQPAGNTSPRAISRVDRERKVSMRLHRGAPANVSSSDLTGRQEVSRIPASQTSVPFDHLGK
row,SMILES,IC50
1,"NC(=O)c1[nH]c2cccnc2c1Sc1cccc(Cl)c1Cl [Ia-9, 3-(2,3-Dichlorophenylsulfanyl)-1H-pyrrolo[3,2-b]pyridine-2-carboxylic acid amide]",> 10000 nM
2,"NC(=O)c1[nH]c2cccnc2c1Sc1cccc(C(F)(F)F)c1 [Ia-11, 3-(3-Trifluoromethyl-phenylsulfanyl)-1H-pyrrolo[3,2-b]pyridine-2-carboxylic acid, amide]",709 nM
3,"NC(=O)c1[nH]c2cccnc2c1Sc1cc(Cl)ccc1Cl [Ia-13, 3-(2,5-Dichloro-phenylsulfanyl)-1H-pyrrolo[3,2-b]pyridine-2-carboxylic acid amide]",> 10000 nM
4,"COc1ccccc1Sc1c(C(N)=O)[nH]c2cccnc12 [Ia-14, 3-(2-Methoxy-phenylsulfanyl)-1H-pyrrolo[3,2-b]pyridine-2-carboxylic acid amide]",669 nM
5,"NC(=O)c1[nH]c2cccnc2c1Sc1cccc(N)c1 [Ia-16, 3-(3-Amino-phenylsulfanyl)-1H-pyrrolo[3,2-b]pyridine-2-carboxylic acid amide]",424 nM
6,"NC(=O)c1[nH]c2cccnc2c1Sc1ccc([N+](=O)[O-])cc1 [Ia-17, 3-(4-Nitro-phenylsulfanyl)-1H-pyrrolo[3,2-b]pyridine-2-carboxylic acid amide]",9790 nM
7,"Cc1ccccc1Sc1c(C(N)=O)[nH]c2cccnc12 [Ia-19, 3-o-Tolylsulfanyl-1H-pyrrolo[3,2-b]pyridine-2-carboxylic acid amide]",140 nM
8,"Cc1cc(C)cc(Sc2c(C(N)=O)[nH]c3cccnc23)c1 [Ia-21, 3-(3,5-Dimethyl-phenylsulfanyl)-1H-pyrrolo[3,2-b]pyridine-2-carboxylic acid amide]",6880 nM
9,"CCc1ccccc1Sc1c(C(N)=O)[nH]c2cccnc12 [Ia-23, 3-(2-Ethyl-phenylsulfanyl)-1H-pyrrolo[3,2-b]pyridine-2-carboxylic acid amide]",6480 nM
10,"NC(=O)c1[nH]c2cccnc2c1Sc1cccc(OC(F)(F)F)c1 [Ia-24, 3-(3-Trifluoromethoxy-phenylsulfanyl)-1H-pyrrolo[3,2-b]pyridine-2-carboxylic acid, amide]",219 nM
11,"NC(=O)c1[nH]c2cccnc2c1Sc1ccccn1 [Ia-26, 3-(Pyridin-2-sulfanyl)-1H-pyrrolo[3,2-b]pyridine-2-carboxylic acid amide]",190 nM
12,"NC(=O)c1[nH]c2cccnc2c1Sc1ccncc1 [Ia-27, 3-(Pyridin-4-sulfanyl)-1H-pyrrolo[3,2-b]pyridine-2-carboxylic acid amide]",2980 nM
13,"NC(=O)c1[nH]c2cccnc2c1Sc1cccs1 [Ia-28, 3-(Thiophen-2-ylsulfanyl)-1H-pyrrolo[3,2-b]pyridine-2-carboxylic acid amide]",53 nM
14,"CNC(=O)c1c(Sc2ccccc2)c2ncccc2n1C [Ia-29, 1-Methyl-3-phenylsulfanyl-1H-pyrrolo[3,2-b]pyridine-2-carboxylic acid methylamide]",> 10000 nM
15,CNC(=O)c1[nH]c2cccnc2c1Sc1cccc(OC(F)(F)F)c1 [Ia-30],> 10000 nM
16,CNC(=O)c1[nH]c2cccnc2c1Sc1cccc(Cl)c1 [Ia-31],> 10000 nM
17,"CNC(=O)c1[nH]c2cccnc2c1Sc1ccccc1 [Ia-33, 3-Phenylsulfanyl-1H-pyrrolo[3,2-b]pyridine-2-carboxylic acid methylamide]",> 10000 nM
18,"Cn1c(C(N)=O)c(Sc2ccccc2)c2ncccc21 [Ia-34, 1-Methyl-3-phenylsulfanyl-1H-pyrrolo[3,2-b]pyridine-2-carboxylic acid amide]",339 nM
19,"COc1ccc2[nH]c(C(N)=O)c(Sc3cccc(F)c3)c2n1 [Ia-35, 3-(3-Fluoro-phenylsulfanyl)-5-methoxy-1H-pyrrolo[3,2-b]pyridine-2-carboxylic acid amide]",896 nM
20,"COc1cccc(Sc2c(C(N)=O)[nH]c3ccc(OC)nc23)c1 [Ia-36, 3-(3-Methoxy-phenylsulfanyl)-5-methoxy-1H-pyrrolo[3,2-b]pyridine-2-carboxylic acid amide]",86 nM

# Same assay, conditions: phosphorylation of casein, 10 μM cold ATP, 2 hours room temperature; * denotes average of 2 or more determinations; read-out: Casein Kinase Iε 33P-ATP Filter Plate Assay IC50
row,SMILES,IC50
1,CNC(=O)c1[nH]c2cccnc2c1Sc1cccc(F)c1 [Ia-32],> 10000 nM
